Common to all, as to format: cell-based, human
For data set [1], the system named is T98G, GBM10, and GBM43 cells. The data set is described as follows: Cell proliferation by automated cell counting. The following applies: 5, 50, 500 μM PPF, up to 144 hours. The procedure: (§1) FIG. 25A—T98G, GBM43, and GBM10 cells were incubated with increasing concentrations of PPF (0, 5, 50, and 500 After 0, 48, 96 and 144 hours of treatment, cell were trypsinized and counted using an automated cell counter. FIG. 25B—GBM43, GBM10, and T98G glioma cells were treated with increasing doses of PPF (0.5, 1, 5, 10, and 20 μM) in triplicate. The CellTiterGlo® (Promega) reagent was used to measure survival. Raw values were normalized on a plate-by-plate basis such that 100% cell viability was equivalent to the mean of vehicle wells and 0% cell viability was equivalent to the mean of the MG132 positive control. The normalized data was used to assess viability of glioma cells after PPF treatment.
(§2) Referring now to FIGS. 25A and 25B: To determine if PPF influences glioma cell proliferation, the inventors treated T98G, GBM10, and GBM43 cells with increasing concentrations of PPF and evaluated cell proliferation over the course of 144 hours. Briefly, 1.25×10^5 cells were seeded (n=3) in 12-well plates in 1 mL of DMEM supplemented with 10% FBS and allowed to attach at 37° C. for 16 hrs. […] After 0, 48, 96 and 144 hours of treatment, the cells were trypsinized and counted using the automated cell counter. […] Subsequently, 100 μL of CellTiterGlo® reagent was added to each well and luminescence was measured using Envision Reader. […]

For data set [2], the system named is T98G, GBM10, and GBM43 cells. The data set is described as follows: CellTiterGlo cytotoxicity assay. The following applies: 0.5 to 20 μM PPF, 72 hours. The procedure:
as §1, §2
Background: Cellular ATP, detected with luciferase, serves as a proxy for viable cell number.

The test system of data set [3] is T98G, GBM10, and GBM43 cells. The data set is described as follows: Lamellipodia formation and membrane ruffling (F-actin staining). The following applies: 5 μM PPF 1 hour prior to 10% FBS for 5 min. The procedure:
FIGS. 28A and 28B depict that PPF suppresses GBM cell membrane ruffling. FIG. 28A—GBM43 cells were preincubated with 5 μM PPF or vehicle for 1 hour prior to 10% FBS stimulation for 5 min. After FBS stimulation, cells were fixed, permeabilized, and stained for F-actin. For each experimental condition, at least 12 images were taken randomly. Arrowhead indicates membrane ruffles. FIG. 28B—Graph depicts the average lamellipodia in T98G, GBM10, and GBM43 cells in the presence or absence of 10% FBS with or without 5 μM PPF as indicated. Lamellipodia were traced using Image J software.
Referring now to FIGS. 28A and 28B: The inventors investigated lamellipodia formation and membrane ruffling. Briefly, glioma cells were plated onto 10-well glass slides pre-coated with 10 μg/ml laminin at the density of 3000 cells/well for 24 hours at 37° C. Subsequently, cells were serum starved for 16 hours. The cells were pre-incubated with 5 μM PPF or vehicle for 1 hour prior to 10% FBS stimulation for 5 min. After FBS stimulation, cells were fixed in 4% PFA, permeabilized with 0.1% Triton X-100, and incubated with Alexa Fluor® 555 Phalloidin (Invitrogen) to stain for F-actin. Slides were mounted with ProLong® reagent with DAPI and imaged using a Zeiss LSM 510 microscope. For each experimental condition, at least 12 images were randomly taken. Lamellipodia were traced using ImageJ software.

With `CCCn1cnc2c1c(=O)n(CCCCC(C)=O)c(=O)n2C` [PPF, 3-methyl-1-(5-oxohexyl)-7-propyl-3,7-dihydro-1H-purine-2,6-dione], the glioma cell proliferation entry in data set [1] is listed as “did not affect the proliferation”. Also, the cell viability result in data set [2] was “negligible loss of cell viability”. Moreover, in data set [3], the “lamellipodia formation and membrane ruffling” value was “significantly decreased”.

The values above are taken from patent US10624895B2, “Methods of sensitizing a patient with glioma to a therapeutic agent by administering small hairpin RNA targeting PDZ-RHOGEF” (THE TRANSLATIONAL GENOMICS RESEARCH INSTITUTE, priority 2016, dated 2020).
